From US20110033946A1, “DETECTION OF SHORT-CHAIN FATTY ACIDS IN BIOLOGICAL SAMPLES” (HEMAQUEST PHARMACEUTICALS, INC., priority 2009, published 2011)
Several values for one entry are separate records, joined by “and”; a condition that tells them apart may be missing. Identical values can stand only once. Like-named read-outs stand apart in the source and are kept apart here.

How the values were obtained:
[1] = Long-term freezer stability in dog plasma; assay type: physicochemical; details: approximately −70° C.
Experimental: (§1) For the remaining validation tests, a calibration curve and triplicates QCs at the low, mid and high levels were analyzed with each sample set. The following samples were also analyzed either in conjunction with one of the precision and accuracy runs or in one of the additional validation runs: Samples from six lots of control dog plasma for specificity. Two concentration levels of unextracted QC-samples in triplicate (solvent standards) were analyzed for the evaluation of the recovery of sodium 2,2-dimethylbutyrate and DMV in dog plasma. Two levels of QC samples (Low QC and High QC in triplicate) were subjected to three freeze/thaw cycles at approximately −70° C. prior to extraction to evaluate freeze/thaw stability. Two levels of QC samples (Low QC and High QC in triplicate) were placed on the bench top for approximately 17 hours prior to extraction for the evaluation of the bench top stability. Triplicate low QC samples and triplicate high QC samples were stored for one month and three months in a freezer at approximately −70° C., and then extracted and analyzed to evaluate long term stability in dog plasma. Three aliquots of a dilution QC sample diluted 10-fold. QC-Low and QC-High plasma samples, which had been stored in a freezer at approximately −70° C. for one month and three months (99 days), were extracted in triplicate and analyzed. All CV % values and RE % values are within the acceptance criteria (≦15% and ±15% respectively). Therefore, sodium 2,2-dimethylbutyrate can be considered stable in dog plasma at approximately −70° C. for at least 99 days.

[2] = Stock solution stability at approximately 4° C. (old vs new stock peak areas); assay type: physicochemical; details: for Stock solution stability, RE % (to New) of old stock peak area: approximately 4° C.
Experimental: The following LC-MS/MS conditions were applied for the analysis of underivatized sodium 2,2-dimethylbutyrate and DMV for stock solution stability analysis (2 to 3.5 month), and system suitability associated with these analyses: The following samples were also analyzed either in conjunction with one of the precision and accuracy runs or in one of the additional validation runs. Samples from six lots of control human plasma for specificity. Samples from six lots of control human plasma fortified with internal standard for specificity. Two concentration levels of unextracted QC-samples in triplicate (solvent standards) were analyzed for the evaluation of the recovery of sodium 2,2-dimethylbutyrate and DMV in human plasma. Two levels of QC samples (Low QC and High QC in triplicate) were subjected to three freeze/thaw cycles at approximately −70° C. prior to extraction to evaluate freeze/thaw stability. Two levels of QC samples (Low QC and High QC in triplicate) were placed on the bench top for approximately 17 hours prior to extraction for the evaluation of the bench top stability. Triplicate low QC samples and triplicate high QC samples were stored for one month and three months in a freezer at approximately −70° C., and then extracted and analyzed to evaluate long term stability in human plasma. Two levels of extracted QC samples (Low QC and High QC) were re-analyzed after approximately 71 hours in the autosampler at room temperature to evaluate the extract autosampler stability. Two levels of extracted QC samples (Low QC and High QC) were re-analyzed after approximately 8 hours in the freezer at approximately −20° C. to evaluate the extract freeze stability. Three aliquots of a dilution QC sample diluted 10-fold. Triplicate dilutions of the old stock solution (stored at approximately 4° C.) and new stock solutions prepared at intervals of two weeks and one month. Statistical calculations in the report tables were calculated from unrounded concentration values taken directly from the raw data. The concentration values were rounded for display purposes. Fresh stock solutions of sodium 2,2-dimethylbutyrate were prepared at intervals of two weeks and 1, 2, 3 and 3.5 months after the initial standard preparation. Similarly, the stability intervals for DMV were two weeks and 1, 2 and 3 months. The initial (or old) stock solutions and the fresh stock solutions were diluted into the calibration standard range and analyzed. The peak areas for the fresh (new) and old standard solutions were compared. Beginning with the 2-month stability analysis, sodium 2,2-dimethylbutyrate and DMV stock solutions were analyzed underivatized. This was done since the peak areas of both sodium 2,2-dimethylbutyrate and DMV varied among replicate derivatized preparations. Analyzing the standard solutions underivatized was a simpler procedure which gave more accurate and precise results

[3] = assay type: physicochemical, rat; details: for Mean concentration, QC-Low / RE %, QC-Low / Measured concentration, QC-Low: nominal 0.60 μg/mL; for Measured concentration, QC-Low / Measured concentration, QC-High: individual replicates; for Mean concentration, QC-High / RE %, QC-High / Measured concentration, QC-High: nominal 40.0 μg/mL; for Long-term freezer stability, RE %: rat, 0.6 μg/mL
Experimental: as §1, with “rat” for “dog”, “specificity; Samples from six lots of control rat plasma fortified with internal standard for specificity;” for “specificity.”, “rat plasma;” for “dog plasma.”, “stability;” for “stability.”, “10-fold.” for “10-fold. QC-Low and QC-High plasma samples, which had been stored in a freezer at approximately −70° C. for one month and three months (99 days), were extracted in triplicate and analyzed. All CV % values and RE % values are within the acceptance criteria (≦15% and ±15% respectively). Therefore, sodium 2,2-dimethylbutyrate can be considered stable in dog plasma at approximately −70° C. for at least 99 days.”
QC-Low and QC-High plasma samples, which had been stored in a freezer at approximately −70° C. for one month and three months (98 days), were extracted in triplicate and analyzed. At the one month interval, the RE % was −24.1% for the QC-Low level. This may have been an anomaly since at the QC-Low level for the three month interval, the RE % was 4.1%. All CV % values and RE % values at the 98 day interval were within the acceptance criteria (≦15% and ±15% respectively). Therefore, sodium 2,2-dimethylbutyrate can be considered stable in rat plasma at approximately −70° C. for at least […].

[4] = 1 Month Interval, QC-High, nominal 40.0 μg/mL
[5] = 1 Month Interval, QC-Low, nominal 0.60 μg/mL
[6] = 3 Month Interval (99 days), QC-High, nominal 40.0 μg/mL
[7] = 3 Month Interval (99 days), QC-Low, nominal 0.60 μg/mL
[8] = rat plasma, approximately −70° C., 1 Month Interval
[9] = rat plasma, approximately −70° C., 3 Month Interval

Time stable in freezer [1]: at least 99 days | Long-term freezer stability, Mean concentration [1, 4]: 36.1 µg/mL | Long-term freezer stability, RE % (mean vs nominal) [1, 4]: −9.9% | Long-term freezer stability, concentration found (replicate) [1, 4]: 36.4 µg/mL and 36.3 µg/mL and 35.5 µg/mL | Long-term freezer stability, Mean concentration [1, 5]: 0.575 µg/mL | Long-term freezer stability, RE % (mean vs nominal) [1, 5]: −4.2% | Long-term freezer stability, Mean concentration [1, 6]: 35.0 µg/mL | Long-term freezer stability, RE % (mean vs nominal) [1, 6]: −12.5% | Long-term freezer stability, concentration found (replicate) [1, 6]: 36.1 µg/mL and 37.1 µg/mL and 31.7 µg/mL | Long-term freezer stability, Mean concentration [1, 7]: 0.61 µg/mL | Long-term freezer stability, RE % (mean vs nominal) [1, 7]: 1.0% | Stock solution stability, RE % (to New) of old stock peak area ([2]; 1 Month Interval): 10.3% | Stock solution stability, RE % (to New) of old stock peak area ([2]; 2 Month Interval, underivatized): 2.2% | Stock solution stability, RE % (to New) of old stock peak area ([2]; 2 Week Interval): −8.6% | Stock solution stability, RE % (to New) of old stock peak area ([2]; 3 Month Interval, underivatized): 1.6% | Stock solution stability, RE % (to New) of old stock peak area ([2]; ~3.5 Month Interval, underivatized): −2.2% | Time stock solutions are stable ([2]; stock solution in acetonitrile/water stored in a refrigerator at approximately 4° C.): at least 3.5 months | Mean concentration, QC-Low [3, 8]: 456 ng/mL | RE %, QC-Low [3, 8]: −24.1% | Mean concentration, QC-High [3, 8]: 34700 ng/mL | RE %, QC-High [3, 8]: −13.3% | Measured concentration, QC-High [3, 8]: 35.4 µg/mL and 34.3 µg/mL and 34.4 µg/mL | Mean concentration, QC-Low [3, 9]: 620 ng/mL | RE %, QC-Low [3, 9]: 4.1% | Measured concentration, QC-Low [3, 9]: 0.663 μg/mL and 0.605 μg/mL (2×) | Mean concentration, QC-High [3, 9]: 37200 ng/mL | RE %, QC-High [3, 9]: −7.1% | Measured concentration, QC-High [3, 9]: 38.0 μg/mL (2×) and 35.5 μg/mL | Time stable in freezer ([3]; rat plasma, approximately −70° C.): at least 99 days | Long-term freezer stability, RE % ([3]; 1 month): −24.1% | Long-term freezer stability, RE % ([3]; 98 days): 4.1%
SMILES: CCC(C)(C)C(=O)[O-].[Na+] [Sodium 2,2-Dimethylbutyrate]
Long-term freezer stability, concentration found (replicate) [1, 5]: 0.586 µg/mL and 0.567 µg/mL and 0.572 µg/mL | Long-term freezer stability, concentration found (replicate) [1, 7]: 0.629 µg/mL and 0.621 µg/mL and 0.568 µg/mL | Measured concentration, QC-Low [3, 8]: 0.410 µg/mL and 0.484 µg/mL and 0.473 µg/mL
